Source: patent US20240385177A1, “Screening Method Using Brown Adipocytes” (KATAOKA CORPORATION, priority 2021, published 2024)
Entries after “also recorded” stand apart in the source; their conditions may differ.

System: low-molecular-weight compound-induced brown adipocytes (ciBAs)
Experiment: Evaluation of browning tendency of ciBAs directly induced from human fibroblasts (Ucp1/Fabp4/Cidea expression, UCP1 protein, induction efficiency, mtDNA, OCR)
Assay type: cell-based
Details: human fibroblasts cultured 3 weeks
Description: The human fibroblasts used as material were purchased from DS Pharma Biomedical, Co., Ltd. The fibroblasts are derived from human skin. The above human fibroblasts were seeded in 35 mm dishes coated with gelatin (Cat #: 190-15805, manufactured by FUJIFILM Wako Pure Chemical Co.) at 5×10^4, and cultured in DMEM medium (Cat #: 11965092; manufactured by Gibco) supplemented with 10% fetal bovine serum (FBS), 100 U/mL penicillin, 100 μg/mL streptomycin until 80% to 90% confluency at 37° C., 5% CO2.
Then, after the human fibroblasts reached 80 to 90% confluency, the medium in the dish was replaced with the serum-free brown adipocyte-inducing medium “SFBAM” described below, and the human fibroblasts were cultured in SFBAM for 3 weeks. To induce ciBA, SFBAM was further supplemented with rosiglitazone (selective PPARγ agonist; 184-02651, manufactured by FUJIFILM Wako Pure Chemical Corporation) at a final concentration of 1 μmol/L, forskolin (cAMP inducer; 063-02193) at a final concentration of 7.5 μmol/L and BMP7 (bone morphogenetic protein; 026-19171, manufactured by FUJIFILM Wako Pure Chemical Corporation) at a final concentration of 20 ng/mL, and human fibroblasts were cultured for 3 weeks. Separately, capsaicin (TRPV1 agonist; 030-11353, manufactured by FUJIFILM Wako Pure Chemical Corporation) and/or nonivamide (TRPV1 agonist; sc-202735, Santa Cruz Biotechnology (manufactured by Santa Cruz Biotechnology, CA, USA), capsazepine (TRPV1 antagonist; 037-23171, manufactured by FUJIFILM Wako Pure Chemical Corporation), AMG9810 (TRPV1 antagonist; 015-25071, FUJIFILM Wako Pure Chemical Corporation), GSK1016790A (TRPV4 agonist; G0798, manufactured by Sigma-Aldrich) were added and human fibroblasts were cultured for 3 weeks. Medium was changed every 3 days.
SFBAM is a serum-free brown adipocyte-inducing medium prepared by adding each ingredient in Table 1 to DMEM medium (Cat #: 11965092; manufactured by Gibco).
To quantify gene expression, total RNA was extracted from fibroblasts treated with each compound using the FastGene (registered trademark) RNA basic kit (manufactured by Nippon Genetics). As a control, fibroblasts were cultured in parallel using SFBAM and total RNA was extracted from compound-induced brown adipocytes and control cells. After reverse transcription by ReverTraAce (registered trademark) PCR RT Master Mix with gDNA Remover (manufactured by Toyobo), Real-time PCR analysis was performed using Power SYBR Green PCR Master Mix (manufactured by Thermo Fisher Scientific). Three reactions were performed per level under the following conditions. • After 10 minutes at 95° C., • The cycle time is 15 seconds at 95° C., followed by 60 seconds at 60° C., for 40 cycles.
All results were standardized by the amount of Tbp mRNA.
Immunocytochemistry was performed as previously reported (Dai P, et al. J Clin Biochem Nutr. 2015; 56(3): 166-70). First, cells were fixed with 4% paraformaldehyde (manufactured by Nacalai Tesque). After washed with phosphate-buffered saline (PBS) three times, the cells were incubated with PBS containing 0.1% Triton X-100 for 10 minutes. The cells were then blocked with PBS containing 3% skim milk for 1hour at room temperature. UCP-1 antibodies (ab10983, manufactured by Abcam, Cambridge, UK) were diluted 1/500 with the blocking solutions. The cells were incubated with the antibodies overnight at 4° C. […] All images were acquired using a fluorescence microscopy (BZ-X710-All-in-One Fluorescence Microscope, manufactured by Keyence). […]

[1] = TRPV1 antagonist added to culture with RoFB and capsaicin (25 μmol/L), FIGS. 8, 9
[2] = compound added to SFBAM with rosiglitazone, forskolin and BMP7 (RoFB), FIGS. 1-7, 10-12

Compound | browning tendency of ciBAs [1] | browning tendency of ciBAs [2]
CC(C)(C)c1ccc(/C=C/C(=O)Nc2ccc3c(c2)OCCO3)cc1 [AMG9810] | suppressed the browning tendency | –
CC(C)C[C@H](NC(=O)c1cc2ccccc2s1)C(=O)N1CCN(C(=O)[C@H](CO)NS(=O)(=O)c2ccc(Cl)cc2Cl)CC1 [GSK1016790A] | – | suppressed; also recorded: inhibits adipocyte browning
COc1cc(CNC(=O)CCCC/C=C/C(C)C)ccc1O [capsaicin] | – | enhanced; also recorded: promotes adipocyte browning
Oc1cc2c(cc1O)CN(C(=S)NCCc1ccc(Cl)cc1)CCC2 [capsazepine] | suppressed the browning tendency | –
CCCCCCCCC(=O)NCc1ccc(O)c(OC)c1 [nonivamide] | – | increased the browning tendency
